Reference: PubChem BioAssay AID179 (DTP/NCI, 2004)
Calls of active or inactive are those of the source.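 How the source made its calls: active means compounds giving half or more protection of infected cells from virus-caused growth loss, again on retest; inactive means the rest.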

Test system: CEM cells HIV-1 protection, formazan growth assay
Assay: NCI AIDS Antiviral Assay
Conditions: for IC50: measured here: growth of uninfected CEM cells
Summary of the method: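 Human CEM cells, uninfected and HIV-1-infected, exposed to five drug concentrations; growth measured by soluble formazan assay and scored as percent protection from infection, with protecting compounds retested.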

Structure (SMILES)	EC50 [µM]	IC50 [µM]	outcome
C/C(=N\O)c1sc(-n2nc(-c3ccccc3)cc2-c2ccccc2)nc1C	> 95.5	44.7	
O=C1c2ccc(S(=O)(=O)O)c(O)c2C(=O)c2ccc(S(=O)(=O)O)c(O)c21			inactive
Cc1ccsc1/C=N/Nc1nc2ccccc2s1	> 200	105	
COc1cccc(CCCNC(=O)Cc2ccccc2CO)c1	> 200	> 200	
N#Cc1c2c(c(-c3cccs3)n(C3OC(CO)C(O)C(O)C3O)c1=S)CCc1ccccc1-2 (stereo not drawn)			inactive
CCN1CCC(O)(c2ccc(Oc3ccc(Cl)cc3)cc2)C(C(=O)c2ccc(Oc3ccc(Cl)cc3)cc2)C1 (stereo not drawn)	> 200	7.59	
C=C[C@H]1[C@@H]2CCC3=CC(=O)CC[C@@H]3C2CC[C@]1(C)C(=O)O (stereo partly drawn)	> 200	> 200	
O=C(O)c1ccc2c(c1)C(=O)N(c1ccc(S(=O)(=O)c3ccc(N4C(=O)c5ccc(C(=O)O)cc5C4=O)cc3)cc1)C2=O			inactive
O=C(/C=C\c1ccccc1)c1ccc(-c2cccc(-c3ccccc3)c2)cc1	> 200	110	
Cc1cn(COCCSc2ccccc2)c(=O)[nH]c1=O	> 135	83.2	
CCOC(=O)C1C(=O)CC(O)(c2ccccc2)C(C(=O)OCC)C1c1ccc(N(C)C)cc1 (stereo not drawn)	> 200	4.07	
CCOC(=O)c1nc2c(C)nc(N(C)C)nc2n(C)c1=O	> 200	> 200	
CCOP(=O)(OCC)/C(=C\n1c(=S)[nH]c2cc(C)ccc21)C(=O)OC	> 200	> 200	
Cc1cc(S(=O)(=O)Nc2nnc3ccc4ccccc4n23)c(S)cc1Cl	> 200	30.9	
CC1CC[P+](C)(Cc2ccccc2)C1 (mixture of isomers)	> 437	162	
N#CC1(C#N)N[C@@H](c2ccsc2)[C@H]2C(=O)N(c3ccccc3)C(=O)[C@H]21	> 200	53.7	
Nc1nnc[se]1	> 200	3.63	
COc1ccc(/C(Cl)=C(\C=N/O)c2ccc(OC)c(OC)c2)cc1OC	> 13.8	> 13.8	
C#C[C@@]1(O)CCCC2=CC3(CC[C@]21C)SCCS3	> 200	89.1	
NC(=O)c1cnc2sc3ccccc3n2c1=O	> 200	> 200	
OC1OC(c2ccco2)C(F)(F)C(F)(F)C1(F)F (stereo not drawn)	> 200	102	
COc1cc(C)c2c(c1C)OC(=O)c1c(C)c(Cl)c(O)c(C=O)c1O2	> 49	> 49	

Structure (SMILES)	EC50 [µM]	IC50 [µM]	outcome
C=CCC[P+](c1ccccc1)(c1ccccc1)c1ccccc1	> 200	2.24	
[N-]=[N+]=NC1(c2ccccc2)C(=O)C(Cl)=C(c2ccccc2)N(c2ccccc2)C1=O (stereo not drawn)	> 200	126	
Nc1nc(O)c2ncn([C@H]3CC[C@@H](CO)O3)c2n1	1.74	> 200	
C[C@]12CCC3c4ccc(OC(=O)c5ccccc5)cc4CC[C@H]3C1CC[C@@H]2OC(=O)C12OC1CCC2=O (stereo partly drawn)	> 200	4.07	
Cc1ccc(S(=O)(=O)NC(N)=NCCCC(NC(=O)OCc2ccccc2)C(=O)N[C@H]2CC[C@H]3[C@@H]4CC=C5C[C@@H](O)CC[C@]5(C)[C@H]4CC[C@]23C)cc1 (stereo partly drawn)	> 200	34.7	
O=c1ccc2cc3ccoc3c(O)c2o1	> 447	135	
CC1(C)COC1(c1ccccc1)c1cccnc1 (stereo not drawn)	> 200	148	
CCOC(=O)NC(=O)c1cn(CCNCCO)c(=O)[nH]c1=O			inactive
COc1ccc(C2=[N+]([O-])c3ccccc3C2=O)cc1			inactive
COc1ccc(/C=N/Nc2nnc3c4ccccc4c4ncccc4c3n2)cc1	> 501	> 501	
CO/C(=N\N=C\c1ccc(C(F)(F)F)cc1)c1ccncc1	> 117	69.2	
ClCC[N+]12CC[N+](CCCl)(CC1)C2			inactive
CCCCCCC[C@@H](O)CC(=O)NC(CC(C)C)C(=O)NC(CCC(=O)O)C(=O)NC1C(=O)NC(C(C)C)C(=O)NC(CC(C)C)C(=O)NC(CO)C(=O)NC(CC(C)C)C(=O)NC(CO)C(=O)NC(C(C)CC)C(=O)OC1C (stereo partly drawn)	91.2	166	
COC(=O)N/N=C(\C)c1sc(-c2nc(C)c(/C(C)=N/NC(=O)OC)s2)nc1C	> 32.4	> 32.4	
OC1(c2ccccc2)c2ccccc2CCC1Br (stereo not drawn)	> 200	56.2	
O=c1c2ccccc2nc(-c2ccc(Br)cc2)n1NC1OC(CO)C(O)C(O)C1O (stereo not drawn)			inactive
CCOP(=O)(OCC)/C(C#N)=C/c1ccco1	69.2	> 200	
CCOC(=O)C(=O)Nc1ccc(C)c(C)c1	> 427	> 427	
CC1CC[C@]2(C(=O)O)CCC3(C)C(=C2[C@H]1C)C=CC1[C@@]2(C)CC[C@H](O)C(C)(C)C2CC[C@]13C (stereo partly drawn)	> 100	> 100	
COC(=O)[C@@H]1Cc2ccc(OC)c(c2)OCCC(=O)N1	> 200	> 200	
Cc1c(C)c2c(c(N)c1C#N)C(=O)N(O)C2=O	> 200	> 200	
N.N.N.N.O=N[O-].O=N[O-].[Cl-].[Co+3]			inactive

Structure (SMILES)	EC50 [µM]	IC50 [µM]	outcome
CCN(CC)CCOC(=O)c1c(C)oc2cc3c(C(=O)OCCN(CC)CC)c(C)oc3cc12	> 200	6.03	
COc1ccc(N2C(=O)C3c4[nH]c5cccc(C)c5c4C4CCC(C(C)(C)C)CC4C3C2=O)cc1 (stereo not drawn)	> 200	89.1	
O=C(O)c1onc2cc([N+](=O)[O-])ccc12	> 1200	219	
CC1(C)CCC2=C(C1)Nc1ccc(Cl)cc1NC2c1ccc([N+](=O)[O-])cc1 (stereo not drawn)	> 200	24.5	
O=C(CCc1ccc(O)c(O)c1)NCCc1cc(O)cc(O)c1			inactive
c1ccc(P2c3ccccc3Oc3ccccc32)cc1	> 200	35.5	
N#CC(C(=N/O)/C(=N\O)C(C#N)c1ccccc1)c1ccccc1 (stereo not drawn)	> 794	123	
c1cc2c(s1)-c1sccc1C21OCCO1	> 200	162	
O=c1cc(NCc2ccncc2)[nH]c(=O)[nH]1			inactive
COC1/C=C/OC2(C)Oc3c(C)c(O)c4c(O)c(c(/C=N/N(C)c5ncnc6c5ncn6C5OC(CO)C(O)C5O)c(O)c4c3C2=O)NC(=O)C(C)=C/C=C/C(C)C(O)C(C)C(O)C(C)C(OC(C)=O)C1C (stereo not drawn)	> 200	110	
Cc1cc(NC(=S)NNC(=O)Cn2nnc(-c3cccc(Cl)c3Cl)n2)ccc1Br	> 200	141	
CC(=O)OC1N(C(C)=O)C(SC23CC4CC(CC(C4)C2)C3)C(C)=CC1(C)OC(C)=O (stereo not drawn)	> 200	126	
S=C1NC2=S(N=C(Nc3ccccc3)N2c2ccccc2)S1 (stereo not drawn)			inactive
O=c1c2ccccc2nc(/C=C(\O)c2ccncc2)n1-c1ccc(Cl)cc1	> 1.45	> 1.45	
COc1ccc(/C=C\c2cc(OC)c(OC)c(OC)c2)cc1OC(=O)CC(N)C(=O)O (stereo not drawn)	> 0.2	0.000309	
CCN1CCC(O)(/C=C/c2ccc(Cl)cc2)C(C(=O)/C=C/c2ccc(Cl)cc2)C1 (stereo not drawn)	> 21.4	> 21.4	
COC(=O)/C=C1\SC2(OC1=Nc1ccccc1)C1CC3CC(C1)CC2C3 (stereo not drawn)	> 200	> 200	
C=C(Nc1ccc(OC)cc1OC)C(=O)Cc1cccc[n+]1[O-]	> 794	> 794	
O=C1C2=C(c3ccccc31)C(c1ccc(F)cc1)N1C(=O)CCSC1=N2 (stereo not drawn)	> 37.2	> 37.2	
COc1ccc(S(=O)(=O)N[C@@H](C(=O)O)c2ccccc2)cc1			inactive
CC(=O)Oc1ccc(O)c(O)c1C/C=C(\C)CC/C=C(\C)CC/C=C(\C)CCC=C(C)C			inactive
CCOC(=O)C1=C(C)N(NC(=O)Nc2ccccc2)C2(N)N(NC(=O)Nc3ccccc3)C(C)=C(C(=O)OCC)C12C#N (stereo not drawn)	> 31.6	> 31.6	

Structure (SMILES)	EC50 [µM]	IC50 [µM]	outcome
O=S(O)CCCSSCCCCSSCCCS(=O)O			inactive
CCOc1ccc(N=NC2C(=O)N(C(=O)CC(=O)Nc3ccc(Cl)cc3)N=C2C)cc1 (stereo not drawn)	> 200	> 200	
Oc1c(C(Nc2cccc3cccnc23)c2ccccc2)ccc2cccnc12 (stereo not drawn)	> 3.8	0.933	
CCOC(=O)Cc1cc(=O)n(C)c2ccccc12	> 200	> 200	
O=P1(c2ccccc2)C(c2ccccc2)CCC1c1ccccc1 (stereo not drawn)	> 200	85.1	
Cc1c(C)c2c(c(N)c1C#N)C(=O)N(CCN1CCNCC1)C2=O	> 200	20.4	
Cc1coc(NS(=O)(=O)c2ccc(N=Nc3c(N)n(C)c(=O)n(C)c3=O)cc2)c1C			inactive
CC1(C)C=CC(C)(C)c2c(NS(=O)(=O)c3ccccc3)ccc(NS(=O)(=O)c3ccccc3)c21	> 200	63.1	
Cn1c(-c2cccs2)cc(-c2ccsc2)c1-c1cccs1			inactive
O=c1ccn(/C=C\c2nc3ccccc3[nH]c2=O)c(=S)[nH]1	> 200	> 200	
Cc1cc2c(cc1C)C1=C(CCC2)C(=O)C(=O)O1	> 200	110	
O=c1cc(N=Nc2ccc(Cl)c(Cl)c2)[nH]c(=O)[nH]1	> 2	1.55	
CC1=C(C(=O)N(C(C)C)C(C)C)CC(C(=O)N(C(C)C)C(C)C)=C(C)N1	> 200	120	
COc1cc2cc[n+]3c4cc(OC)c(OC)cc4c(C)cc3c2cc1OC			inactive
Cc1ccc(NC(=O)NC(=O)CCl)cc1	> 31.6	7.76	
Cc1cc2c(c3oc(C4(C)OC4C4OC4C)cc(=O)c13)C(=O)c1c(O)c(C3CC(C)(N(C)C)C(O)C(C)O3)cc(C3CC(N(C)C)C(O)C(C)O3)c1C2=O (stereo not drawn)	> 0.002	9.55e-05	
O=C1C=C(NCCc2ccccc2)c2ccccc2C1=O	> 36.3	25.1	
CCC1CN(C(=O)c2ccccc2)C(Cc2c[nH]c3ccccc23)C(=O)C1CC(=O)OC (stereo not drawn)	> 200	79.4	
COC1=C(c2c[nH]c3ccc(CC=C(C)C)cc23)C(=O)C(OC)=C(c2c[nH]c3ccc(CC=C(C)C)cc23)C1=O	> 38.9	2.24	
